This passage reports MIC results from patent US6638955B2, “Antibiotic oxazolidinone derivatives” (priority 1996, dated 2003).

Common to all, as to experiment: MIC, agar-dilution, standard in-vitro test
Common to all, as to format: cell-based

The subject of experiment [1] is Coagulase Negative Staphylococcus MR (methicillin resistant). To be noted: 10^4 CFU/spot, 37° C., 24 hours. The method, then: (§1) The following results were obtained on a standard in-vitro test system. The activity is described in terms of the minimum inhibitory concentration (MIC) determined by the agar-dilution technique with an inoculum size of 10^4 CFU/spot.
(§2) Staphylococci were tested on agar, using an inoculum of 10^4 CFU/spot and an incubation temperature of 37° C. for 24 hours—standard test conditions for the expression of methicillin resistance.

Experiment [2] relates to Coagulase Negative Staphylococcus MS (methicillin sensitive). The settings on record: 10^4 CFU/spot, 37° C., 24 hours. The protocol: as §1, §2
Experiment [3] has as its system Staphylococcus aureus MRQR (methicillin resistant quinolone resistant). The settings on record: 10^4 CFU/spot, 37° C., 24 hours. The protocol:
as §1, §2

For experiment [4], the system named is Staphylococcus aureus MRQS (methicillin resistant quinolone sensitive). To be noted: 10^4 CFU/spot, 37° C., 24 hours. The method, then:
as §1, §2

Experiment [5] deals with Staphylococcus aureus Novb. Res (Novobiocin resistant). The settings on record: 10^4 CFU/spot, 37° C., 24 hours. The method, then: as §1, §2
For experiment [6], the system named is Staphylococcus aureus Oxford. To be noted: 10^4 CFU/spot, 37° C., 24 hours. The protocol:
as §1, §2

A further experiment concerns Enterococcus faecalis. The settings on record: agar with 5% defibrinated horse blood, 10^4 CFU/spot, 37° C., 5% carbon dioxide, 48 hours. The protocol: as §1
(§3) Streptococci and enterococci were tested on agar supplemented with 5% defibrinated horse blood, an inoculum of 10^4 CFU/spot and an incubation temperature of 37° C. in an atmosphere of 5% carbon dioxide for 48 hours—blood is required for the growth of some of the test organisms.

The subject of experiment [7] is Streptococcus pyogenes C203. To be noted: agar with 5% defibrinated horse blood, 10^4 CFU/spot, 37° C., 5% carbon dioxide, 48 hours. The protocol:
as §1, §3

A further experiment concerns Bacillus subtilis. The settings on record: 10^4 CFU/spot.
Text: as §1

What is called MIC is the smallest concentration in the dilution series that meets the test's criterion for growth inhibition. Read a high MIC as a need for much substance.

Structures are written as SMILES. Converted amounts (≈) assume the structure as drawn.

As to `CC(=O)NC[C@H]1CN(c2ccc(C3=CCN(C(=O)OC(C)(C)C)CC3)cc2)C(=O)O1` [Example 1, N-((5S)-3-(4-(1-tert-butoxycarbonyl-1,2,5,6-tetrahydropyrid-4-yl)phenyl)-2-oxoxazolidin-5yl-methyl)acetamide], the MIC in experiment [1] was found to be 1.0 µg/mL (≈ 2.41 µM); in experiment [2], 0.25 µg/mL (≈ 0.602 µM); in [3], 0.5 µg/mL (≈ 1.2 µM); in experiment [4], 0.5 µg/mL (≈ 1.2 µM); in [5] it was 0.5 µg/mL (≈ 1.2 µM); in experiment [6], 1.0 µg/mL (≈ 2.41 µM). The MIC with Enterococcus faecalis stood at 1.0 µg/mL (≈ 2.41 µM); in experiment [7], 1.0 µg/mL (≈ 2.41 µM); against Bacillus subtilis, 0.25 µg/mL (≈ 0.602 µM).
